According to EP1200395B1, “UREA DERIVATIVES AS INHIBITORS OF CCR-3 RECEPTOR” (KIRIN BEER KABUSHIKI KAISHA, priority 1999, dated 2001):

target: T1, CCR-3 (Homo sapiens, UniProt P51677); test: Eotaxin-induced chemotaxis of CCR-3 transfectant cells (CCR3/U937); format: cell-based; parameters: expressed in transfected cells; host or cells: U937; settings: 10 µM test compound; eotaxin 1 x 10^-9 M; CCR3/U937 cells (Table 3c)
T1 sequence (P51677 1-355): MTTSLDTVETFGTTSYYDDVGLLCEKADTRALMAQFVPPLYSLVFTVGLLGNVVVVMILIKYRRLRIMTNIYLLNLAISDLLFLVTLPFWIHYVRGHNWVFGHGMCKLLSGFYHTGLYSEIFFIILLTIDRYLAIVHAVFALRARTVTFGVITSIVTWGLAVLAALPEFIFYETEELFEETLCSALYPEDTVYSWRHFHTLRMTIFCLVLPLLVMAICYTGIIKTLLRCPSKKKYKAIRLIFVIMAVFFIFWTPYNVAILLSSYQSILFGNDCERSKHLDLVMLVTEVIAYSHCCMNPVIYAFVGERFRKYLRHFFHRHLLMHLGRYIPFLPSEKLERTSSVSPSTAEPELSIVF

Compound | Chemotaxis Assay 10 µM (inhibition %) [%]
CC[N+](CCCNC(=O)Nc1ccccc1)(CCc1ccc(Cl)cc1)Cc1cc2c(cc1Cl)OCO2.[I-] (stereo not drawn) [compound 348] | 100
CC[N+](CCCNC(=O)Nc1ccccc1)(CCc1ccc(Cl)cc1)Cc1ccc(Cl)c(Cl)c1.[I-] (stereo not drawn) [compound 349] | 100
CC[N+](CCCNC(=O)Nc1ccccc1)(CCc1ccc(Cl)cc1)Cc1ccc(OCc2ccccc2)c(OCc2ccccc2)c1.[I-] (stereo not drawn) [compound 350] | 59
CC[N+](CCCNC(=O)Nc1ccccc1)(CCc1ccc(Cl)cc1)Cc1ccc(C)c(C)c1.[I-] (stereo not drawn) [compound 353] | 100
CC[N+](CCCNC(=O)Nc1ccccc1)(CCc1ccc(Cl)cc1)Cc1cccc(Oc2ccccc2F)c1.[I-] (stereo not drawn) [compound 354] | 100

same assay, conditions: test compound 0.1 µg/ml; eotaxin 1 x 10^-9 M; CCR3/U937 transfectants; 37 °C, 1 hour

Compound | Chemotaxis Assay 0.1 µg/ml (inhibition %)
CC[N+](CCCNC(=O)Nc1ccc(Cl)c(Cl)c1)(CCOCCOC)CCc1ccccc1.[I-] (stereo not drawn) [compound 359] | 49%
CC[N+](CCCNC(=O)Nc1ccc(Cl)c(Cl)c1)(CCOCCOC)CCc1cccc(F)c1.[I-] (stereo not drawn) [compound 360] | 70%
C=C(C)C[N+](CC)(CCCNC(=O)Nc1ccc(Cl)c(Cl)c1)CCc1ccccc1.[I-] (stereo not drawn) [compound 368] | 88%
CC[N+](CCF)(CCCNC(=O)Nc1ccc(Cl)c(Cl)c1)CCc1cccc(Cl)c1.[I-] (stereo not drawn) [compound 369] | 82%
CC[N+](CCF)(CCCNC(=O)Nc1ccc(Cl)c(Cl)c1)CCc1ccccc1.[I-] (stereo not drawn) [compound 370] | 64%
CC[N+](CCF)(CCCNC(=O)Nc1ccc(Cl)c(Cl)c1)CCc1cccc(F)c1.[I-] (stereo not drawn) [compound 371] | 86%
CC[N+](CC#N)(CCCNC(=O)Nc1ccc(Br)cc1)CCc1cccc(Cl)c1.[I-] (stereo not drawn) [compound 372] | 76%
CC[N+](CCCNC(=O)Nc1ccc(Br)cc1)(CCOCCOC)CCc1cccc(Cl)c1.[I-] (stereo not drawn) [compound 373] | 100%
CC[N+](CCCNC(=O)Nc1ccc(Br)cc1)(CCOCCOC)CCc1ccc(Cl)cc1Cl.[I-] (stereo not drawn) [compound 374] | 100%
CC[N+](CCCNC(=O)Nc1ccc(Br)cc1)(CCOCCOC)CCc1cccc(F)c1.[I-] (stereo not drawn) [compound 375] | 91%
CC[N+](CCCNC(=O)Nc1ccc(Br)cc1)(CCc1cccc(Cl)c1)CC1CCC1.[I-] (stereo not drawn) [compound 376] | 87%
CC[N+](CCCNC(=O)Nc1ccc(Br)cc1)(CCc1ccc(Cl)c(Cl)c1)CC1CCC1.[I-] (stereo not drawn) [compound 377] | 46%
C=C(C)C[N+](CC)(CCCNC(=O)Nc1ccc(Br)cc1)CCc1cccc(Cl)c1.[I-] (stereo not drawn) [compound 378] | 81%
CCC(CC)C[N+](CC)(CCCNC(=O)Nc1ccc(Br)cc1)CCc1cccc(Cl)c1.[I-] (stereo not drawn) [compound 379] | 80%
CCC(CC)C[N+](CC)(CCCNC(=O)Nc1ccc(Br)cc1)CCc1ccc(Cl)c(Cl)c1.[I-] (stereo not drawn) [compound 380] | 46%
CC[N+](CCF)(CCCNC(=O)Nc1ccc(Br)cc1)CCc1ccc(Cl)cc1.[I-] (stereo not drawn) [compound 381] | 68%
CC[N+](CCF)(CCCNC(=O)Nc1ccc(Br)cc1)CCc1cccc(Cl)c1.[I-] (stereo not drawn) [compound 382] | 98%
CC[N+](CCF)(CCCNC(=O)Nc1ccc(Br)cc1)CCc1ccc(Cl)cc1Cl.[I-] (stereo not drawn) [compound 383] | 43%
CC[N+](CCF)(CCCNC(=O)Nc1ccc(Br)cc1)CCc1ccc(Cl)c(Cl)c1.[I-] (stereo not drawn) [compound 384] | 76%
CC[N+](CCF)(CCCNC(=O)Nc1ccc(Br)cc1)CCc1cccc(F)c1.[I-] (stereo not drawn) [compound 385] | 68%

Compound | Chemotaxis Assay 0.1 µg/ml (inhibition %)
CC[N+](CCCNC(=O)Nc1ccc(C(F)(F)F)cc1)(CCOCCOC)CCc1ccc(Cl)cc1.[I-] (stereo not drawn) [compound 386] | 43%
CC[N+](CCCNC(=O)Nc1ccc(C(F)(F)F)cc1)(CCOCCOC)CCc1cccc(Cl)c1.[I-] (stereo not drawn) [compound 387] | 94%
CC[N+](CCCNC(=O)Nc1ccc(C(F)(F)F)cc1)(CCOCCOC)CCc1ccc(Cl)cc1Cl.[I-] (stereo not drawn) [compound 388] | 56%
CC[N+](CCCNC(=O)Nc1ccc(C(F)(F)F)cc1)(CCOCCOC)CCc1cccc(F)c1.[I-] (stereo not drawn) [compound 389] | 65%
C=C(C)C[N+](CC)(CCCNC(=O)Nc1ccc(C(F)(F)F)cc1)CCc1cccc(Cl)c1.[I-] (stereo not drawn) [compound 390] | 51%
CC[N+](CCF)(CCCNC(=O)Nc1ccc(C(F)(F)F)cc1)CCc1cccc(Cl)c1.[I-] (stereo not drawn) [compound 391] | 47%
CC[N+](CCCNC(=O)Nc1ccc(C#N)cc1)(CCOCCOC)CCc1cccc(OC)c1.[I-] (stereo not drawn) [compound 392] | 45%
CCC(CC)C[N+](CC)(CCCNC(=O)Nc1ccc(C#N)cc1)CCc1cccc(Cl)c1.[I-] (stereo not drawn) [compound 402] | 71%
CC[N+](CCF)(CCCNC(=O)Nc1ccc(C#N)cc1)CCc1cccc(Cl)c1.[I-] (stereo not drawn) [compound 403] | 77%
CC[N+](CCF)(CCCNC(=O)Nc1ccc(C#N)cc1)CCc1ccc(Cl)cc1Cl.[I-] (stereo not drawn) [compound 404] | 47%
CC[N+](CCF)(CCCNC(=O)Nc1ccc(C#N)cc1)CCc1c(Cl)cccc1Cl.[I-] (stereo not drawn) [compound 405] | 57%
CC[N+](CCCNC(=O)Nc1ccccc1)(CCOCCOC)CCc1cccc(OC)c1.[I-] (stereo not drawn) [compound 406] | 43%
CC[N+](CCCNC(=O)Nc1ccccc1)(CCc1cccc(Cl)c1)CCC(C)C.[I-] (stereo not drawn) [compound 407] | 52%
CC[N+](CCCNC(=O)Nc1ccccc1)(CCc1ccc(Cl)c(Cl)c1)CCC(C)C.[I-] (stereo not drawn) [compound 408] | 74%
CC[N+](CCCNC(=O)Nc1ccccc1)(CCc1ccc(Cl)cc1Cl)CC(N)=O.[I-] (stereo not drawn) [compound 409] | 53%
CC[N+](CCCNC(=O)Nc1ccccc1)(CCc1ccc(Cl)c(Cl)c1)CC(N)=O.[I-] (stereo not drawn) [compound 410] | . 50%
CC[N+](CC#N)(CCCNC(=O)Nc1ccccc1)CCc1cccc(Cl)c1.[I-] (stereo not drawn) [compound 411] | 42%
CC[N+](CCCNC(=O)Nc1ccccc1)(CCOCCOC)CCc1ccc(Cl)cc1.[I-] (stereo not drawn) [compound 412] | 84%
CC[N+](CCCNC(=O)Nc1ccccc1)(CCOCCOC)CCc1cccc(Cl)c1.[I-] (stereo not drawn) [compound 413] | 95%
CC[N+](CCCNC(=O)Nc1ccccc1)(CCOCCOC)CCc1ccc(Cl)cc1Cl.[I-] (stereo not drawn) [compound 414] | 98%

Compound | Chemotaxis Assay 0.1 µg/ml (inhibition %)
CC[N+](CCCNC(=O)Nc1ccccc1)(CCOCCOC)CCc1ccc(Cl)c(Cl)c1.[I-] (stereo not drawn) [compound 415] | 99%
CC[N+](CCCNC(=O)Nc1ccccc1)(CCOCCOC)CCc1cccc(F)c1.[I-] (stereo not drawn) [compound 416] | 69%
CC[N+](CCCNC(=O)Nc1ccccc1)(CCc1ccc(Cl)cc1)CC1CCC1.[I-] (stereo not drawn) [compound 417] | 59%
CC[N+](CCCNC(=O)Nc1ccccc1)(CCc1ccc(Cl)cc1Cl)CC1CCC1.[I-] (stereo not drawn) [compound 419] | 76%
CC[N+](CCCNC(=O)Nc1ccccc1)(CCc1ccc(Cl)c(Cl)c1)CC1CCC1.[I-] (stereo not drawn) [compound 420] | 99%
CC[N+](CCCNC(=O)Nc1ccccc1)(CCc1cccc(F)c1)CC1CCC1.[I-] (stereo not drawn) [compound 421] | 66%
C=C(C)C[N+](CC)(CCCNC(=O)Nc1ccccc1)CCc1ccc(Cl)cc1.[I-] (stereo not drawn) [compound 422] | 42%
C=C(C)C[N+](CC)(CCCNC(=O)Nc1ccccc1)CCc1cccc(Cl)c1.[I-] (stereo not drawn) [compound 423] | 92%
C=C(C)C[N+](CC)(CCCNC(=O)Nc1ccccc1)CCc1ccc(Cl)cc1Cl.[I-] (stereo not drawn) [compound 424] | 95%
C=C(C)C[N+](CC)(CCCNC(=O)Nc1ccccc1)CCc1ccc(Cl)c(Cl)c1.[I-] (stereo not drawn) [compound 425] | 93%
C=C(C)C[N+](CC)(CCCNC(=O)Nc1ccccc1)CCc1ccccc1.[I-] (stereo not drawn) [compound 426] | 44%
CCC(CC)C[N+](CC)(CCCNC(=O)Nc1ccccc1)CCc1ccc(Cl)cc1.[I-] (stereo not drawn) [compound 427] | 67%
CCC(CC)C[N+](CC)(CCCNC(=O)Nc1ccccc1)CCc1cccc(Cl)c1.[I-] (stereo not drawn) [compound 428] | 93%
CCC(CC)C[N+](CC)(CCCNC(=O)Nc1ccccc1)CCc1ccc(Cl)cc1Cl.[I-] (stereo not drawn) [compound 429] | 64%
CCC(CC)C[N+](CC)(CCCNC(=O)Nc1ccccc1)CCc1ccc(Cl)c(Cl)c1.[I-] (stereo not drawn) [compound 430] | 76%
CCC(CC)C[N+](CC)(CCCNC(=O)Nc1ccccc1)CCc1cccc(F)c1.[I-] (stereo not drawn) [compound 431] | 96%
CC[N+](CCF)(CCCNC(=O)Nc1ccccc1)CCc1cccc(Cl)c1.[I-] (stereo not drawn) [compound 432] | 96%
CC[N+](CCF)(CCCNC(=O)Nc1ccccc1)CCc1ccc(Cl)cc1Cl.[I-] (stereo not drawn) [compound 433] | 76%
